{"source": "paper PMC3333808", "about": "(Cell Reports, 2012)", "key": {"SecYEG [1]": {"target": "T1, SecYEG (Escherichia coli, UniProt P0AG96+P0AG99+P0AGA2)", "T1 sequence (P0AGA2 1-443)": "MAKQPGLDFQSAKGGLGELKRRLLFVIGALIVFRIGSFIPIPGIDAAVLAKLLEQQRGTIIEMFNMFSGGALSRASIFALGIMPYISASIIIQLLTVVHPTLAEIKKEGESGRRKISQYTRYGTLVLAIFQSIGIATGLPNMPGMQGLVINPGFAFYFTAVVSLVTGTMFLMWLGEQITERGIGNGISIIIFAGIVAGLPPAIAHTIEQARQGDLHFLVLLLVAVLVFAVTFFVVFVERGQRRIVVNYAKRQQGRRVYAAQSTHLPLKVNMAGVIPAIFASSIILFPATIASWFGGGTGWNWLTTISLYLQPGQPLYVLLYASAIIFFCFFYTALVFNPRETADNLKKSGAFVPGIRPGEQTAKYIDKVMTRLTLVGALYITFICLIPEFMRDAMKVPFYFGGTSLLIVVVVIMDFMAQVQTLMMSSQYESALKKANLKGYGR", "T1 sequence (P0AG96 1-127 partner)": "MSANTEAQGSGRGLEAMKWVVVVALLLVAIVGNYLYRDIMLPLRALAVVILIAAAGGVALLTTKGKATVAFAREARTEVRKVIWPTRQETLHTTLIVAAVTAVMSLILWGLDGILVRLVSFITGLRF", "T1 sequence (P0AG99 1-110 partner)": "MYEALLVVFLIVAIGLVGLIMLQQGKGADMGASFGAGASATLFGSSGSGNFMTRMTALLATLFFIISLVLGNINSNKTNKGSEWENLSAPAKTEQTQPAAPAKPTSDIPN", "format": "binding", "conditions": "1.65 μM SecYEG, 3.2 mg/ml E. coli polar lipids, 10 μM peptide; reisolated by centrifugation; SDS-PAGE, silver staining; Figure 1D"}, "SecA": {"test_system": "SecA", "conditions": "synthetic LamB signal peptide; ref Gelis et al., 2007; cited from earlier work"}, "SecYEG [2]": {"test_system": "SecYEG", "conditions": "membranes containing SecYEG; ref Simon and Blobel, 1992; cited from earlier work"}, "SecYEG [3]": {"target": "T1, SecYEG", "assay": "Translocation of OmpA into vesicles coreconstituted with SecYEG and peptide", "format": "biochemical", "conditions": "vesicles reisolated from excess unbound peptide; western blot; n = 8; Figure 1E"}, "SecYEG [4]": {"target": "T1, SecYEG", "assay": "SecA/ATP-driven translocation of preprotein proOmpA into SecYEG proteoliposomes", "format": "biochemical", "conditions": "proteoliposomes containing SecYEG; 0.7 μM proOmpA; 25°C, pH 7.5; proteinase K protection, western blot; Figures 1A and 1B"}, "trypsin": {"test_system": "trypsin", "assay": "Resistance of peptide in SecYEG 2D crystals to trypsin", "format": "in vitro ADME", "conditions": "1:100 (w/w) trypsin, 20 min, room temperature; Coomassie-stained SDS-PAGE; Figure 1F"}, "SecYEG [5]": {"test_system": "SecYEG", "conditions": "dimer vs monomer; ref Deville et al., 2011; cited from earlier work"}, "SecYEG complex [6]": {"target": "T2, SecYEG complex (E. coli, UniProt P0AGA2 1-443; P0AG96 1-127; P0AG99 1-110)", "T2 sequence (looked up) 1": "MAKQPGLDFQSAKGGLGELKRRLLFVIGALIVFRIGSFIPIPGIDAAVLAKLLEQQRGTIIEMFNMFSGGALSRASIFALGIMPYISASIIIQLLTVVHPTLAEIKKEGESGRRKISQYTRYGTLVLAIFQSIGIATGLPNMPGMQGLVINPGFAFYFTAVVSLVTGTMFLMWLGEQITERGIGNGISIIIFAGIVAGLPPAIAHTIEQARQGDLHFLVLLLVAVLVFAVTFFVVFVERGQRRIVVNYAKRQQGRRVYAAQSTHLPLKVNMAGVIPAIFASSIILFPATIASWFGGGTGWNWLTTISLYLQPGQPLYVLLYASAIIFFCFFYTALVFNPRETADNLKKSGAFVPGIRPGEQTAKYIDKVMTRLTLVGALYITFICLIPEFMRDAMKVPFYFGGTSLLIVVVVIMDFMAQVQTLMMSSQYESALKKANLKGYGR", "T2 sequence (looked up) 2": "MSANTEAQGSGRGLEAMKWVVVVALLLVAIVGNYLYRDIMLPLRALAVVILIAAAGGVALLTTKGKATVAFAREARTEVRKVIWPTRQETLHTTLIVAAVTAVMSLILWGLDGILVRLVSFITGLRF", "T2 sequence (looked up) 3": "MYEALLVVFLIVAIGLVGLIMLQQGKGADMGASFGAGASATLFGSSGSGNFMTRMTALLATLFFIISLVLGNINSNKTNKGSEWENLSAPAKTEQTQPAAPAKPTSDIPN", "assay": "co-sedimentation"}, "SecYEG complex [7]": {"target": "T2, SecYEG complex", "assay": "cryo-EM structure"}}}
{"molecule": "MMITLRKLP-(ΔLAVA)-VAAGVMSAQAYA-VDFHGYARSGIGWTG [SSΔ4-β1]", "values": [{"measurement": "peptide retained following coreconstitution with SecYEG", "setting": "SecYEG [1]", "result": "but not SSΔ4-β1, were retained following coreconstitution with SecYEG"}]}
{"molecule": "MMITLRKLPLAVAVAAGVMSAQAYA [SS]", "values": [{"measurement": "effect of association with SecA on protein translocation", "setting": "SecA", "result": "competitive inhibition of protein translocation"}, {"measurement": "peptide retained following coreconstitution with SecYEG", "setting": "SecYEG [1]", "result": "retained following coreconstitution with SecYEG"}, {"measurement": "channel opening", "setting": "SecYEG [2]", "result": "opens channels in membranes containing SecYEG"}, {"measurement": "translocation of OmpA after coreconstitution of SecYEG with peptide", "setting": "SecYEG [3]", "result": "permitted the translocation of OmpA"}]}
{"molecule": "MMITLRKLPLAVAVAAGVMSAQAYA-VDFHGYARSGIGWTG [SS-β1]", "values": [{"measurement": "peptide retained following coreconstitution with SecYEG", "setting": "SecYEG [1]", "result": "retained following coreconstitution with SecYEG"}, {"measurement": "translocation of OmpA after coreconstitution of SecYEG with peptide", "setting": "SecYEG [3]", "result": "permitted the translocation of OmpA"}, {"measurement": "inhibition of SecA/ATP-driven translocation of proOmpA", "setting": "SecYEG [4]", "result": "quantitatively inhibits"}, {"measurement": "resistance to proteolysis by trypsin in SecYEG 2D crystals", "setting": "trypsin", "result": "resistance to proteolysis"}]}
{"molecule": "SecA: ATPase that associates peripherally with the protein-channel complex SecYEG", "values": [{"measurement": "affinity of SecA for the SecYEG dimer over the monomer", "setting": "SecYEG [5]", "result": 10, "unit": "fold"}]}
{"molecule": "MMITLRKLPLAVAVAAGVMSAQAYA", "note": "[LamB signal sequence peptide (SS)]", "values": [{"measurement": "binding result", "setting": "SecYEG complex [6]", "result": "binds"}]}
{"molecule": "MMITLRKLPLAVAVAAGVMSAQAYAVDFHGYARSGIGWTG", "note": "[LamB signal sequence plus the first β strand peptide (SS-β1)]", "values": [{"measurement": "stoichiometry N", "setting": "SecYEG complex [7]", "result": "1 substrate per SecYEG dimer"}]}
